Our source for the IC50 values is US10577308B2, “Sodium channel modulators” (The Florey Institute of Neuroscience and Mental Health, priority 2015, dated 2020).

The target of experiment [1] is hNav1.2 (Homo sapiens (Human), UniProt Q99250). Kind of experiment: Automated patch clamp (IonWorks Quattro) block of hNav1.2 channels in CHO cells. Format: cell-based. From the text:
(§1) FIG. 1 depicts the voltage sequence used to measure inhibitory activity of compounds as described in Example 3. An automated patch clamp screening assay was used to measure the inhibitory effect (potency) of compounds in three conformational states of the sodium channel: (1) the tonic state (TP1); (2) the frequency-dependent (10 Hz) state (TP11) and (3) the inactivated state (TP12).
(§2) Test Protocol for Determining the Potency of Compounds on Nav1.2 and Nav1.6 Subtypes of Voltage-Gated Sodium Ion Channels Expressed in Mammalian Cells
(§3) Cell culture procedures: Chinese hamster ovary (CHO) cells were stably transfected with the cDNA sequence of either the human SCN2A or SCN8A genes to create hNav1.2 or hNav1.6 cells respectively. The cell lines were cultured in Ham's F-12 medium supplemented with 10% fetal bovine serum and antibiotics in a tissue incubator at 37° C. under a humidified air/CO2 mixture (95/5 v/v). On the day of the experiment, cells were washed twice with Hank's balanced salt solution, treated with trypsin, and resuspended in fresh culture media at a density of 4−6×10^6 cells in 20 ml. Immediately before placing in the IonWorks Quattro instrument, cells were washed in Hank's balanced salt solution to remove culture medium and re-suspended in 3 ml of Hank's balanced salt solution.
(§4) Automated patch clamp recordings of cells using the IonWorks Quattro Instrument: The assay used a 384 microwell plate, which enabled 20 compounds to be studied at four different concentrations in quadruplicate as well as allowing a vehicle control group and a positive control group using mexiletine at 8 different concentrations. Cells were added to the wells of the Population Patch Clamp planar electrode using a 48-channel pipettor in a volume of 6 μL, per well. After 5 minutes incubation at ambient temperature with compounds or vehicle, membrane currents were recorded using the patch clamp amplifier. The pulse pattern was repeated twice, before and after compound addition and peak current amplitudes were measured at three test pulses, TP1, TP11 and TP12 to measure Tonic Block, 10 Hz Frequency-dependent Block and Inactivation State Block, respectively.
(§5) Data analysis: Data acquisition and analyses were carried out using the IonWorks Quattro system operation software which uses an algorithm to correct data for leak currents. Concentration-response curves were fitted by non-linear least squares regression allowing calculation of an IC50 value (μM), being the concentration of the compound producing half-maximal inhibition.
On the technique in general: The patch-clamp technique gives a direct electrical read-out from membranes.

The target of experiment [2] is hNav1.6 (Homo sapiens (Human), UniProt Q9UQD0). Kind of experiment: Automated patch clamp (IonWorks Quattro) block of hNav1.6 channels in CHO cells. Format: cell-based.
hNav1.6, sequence (Q9UQD0 whole entry): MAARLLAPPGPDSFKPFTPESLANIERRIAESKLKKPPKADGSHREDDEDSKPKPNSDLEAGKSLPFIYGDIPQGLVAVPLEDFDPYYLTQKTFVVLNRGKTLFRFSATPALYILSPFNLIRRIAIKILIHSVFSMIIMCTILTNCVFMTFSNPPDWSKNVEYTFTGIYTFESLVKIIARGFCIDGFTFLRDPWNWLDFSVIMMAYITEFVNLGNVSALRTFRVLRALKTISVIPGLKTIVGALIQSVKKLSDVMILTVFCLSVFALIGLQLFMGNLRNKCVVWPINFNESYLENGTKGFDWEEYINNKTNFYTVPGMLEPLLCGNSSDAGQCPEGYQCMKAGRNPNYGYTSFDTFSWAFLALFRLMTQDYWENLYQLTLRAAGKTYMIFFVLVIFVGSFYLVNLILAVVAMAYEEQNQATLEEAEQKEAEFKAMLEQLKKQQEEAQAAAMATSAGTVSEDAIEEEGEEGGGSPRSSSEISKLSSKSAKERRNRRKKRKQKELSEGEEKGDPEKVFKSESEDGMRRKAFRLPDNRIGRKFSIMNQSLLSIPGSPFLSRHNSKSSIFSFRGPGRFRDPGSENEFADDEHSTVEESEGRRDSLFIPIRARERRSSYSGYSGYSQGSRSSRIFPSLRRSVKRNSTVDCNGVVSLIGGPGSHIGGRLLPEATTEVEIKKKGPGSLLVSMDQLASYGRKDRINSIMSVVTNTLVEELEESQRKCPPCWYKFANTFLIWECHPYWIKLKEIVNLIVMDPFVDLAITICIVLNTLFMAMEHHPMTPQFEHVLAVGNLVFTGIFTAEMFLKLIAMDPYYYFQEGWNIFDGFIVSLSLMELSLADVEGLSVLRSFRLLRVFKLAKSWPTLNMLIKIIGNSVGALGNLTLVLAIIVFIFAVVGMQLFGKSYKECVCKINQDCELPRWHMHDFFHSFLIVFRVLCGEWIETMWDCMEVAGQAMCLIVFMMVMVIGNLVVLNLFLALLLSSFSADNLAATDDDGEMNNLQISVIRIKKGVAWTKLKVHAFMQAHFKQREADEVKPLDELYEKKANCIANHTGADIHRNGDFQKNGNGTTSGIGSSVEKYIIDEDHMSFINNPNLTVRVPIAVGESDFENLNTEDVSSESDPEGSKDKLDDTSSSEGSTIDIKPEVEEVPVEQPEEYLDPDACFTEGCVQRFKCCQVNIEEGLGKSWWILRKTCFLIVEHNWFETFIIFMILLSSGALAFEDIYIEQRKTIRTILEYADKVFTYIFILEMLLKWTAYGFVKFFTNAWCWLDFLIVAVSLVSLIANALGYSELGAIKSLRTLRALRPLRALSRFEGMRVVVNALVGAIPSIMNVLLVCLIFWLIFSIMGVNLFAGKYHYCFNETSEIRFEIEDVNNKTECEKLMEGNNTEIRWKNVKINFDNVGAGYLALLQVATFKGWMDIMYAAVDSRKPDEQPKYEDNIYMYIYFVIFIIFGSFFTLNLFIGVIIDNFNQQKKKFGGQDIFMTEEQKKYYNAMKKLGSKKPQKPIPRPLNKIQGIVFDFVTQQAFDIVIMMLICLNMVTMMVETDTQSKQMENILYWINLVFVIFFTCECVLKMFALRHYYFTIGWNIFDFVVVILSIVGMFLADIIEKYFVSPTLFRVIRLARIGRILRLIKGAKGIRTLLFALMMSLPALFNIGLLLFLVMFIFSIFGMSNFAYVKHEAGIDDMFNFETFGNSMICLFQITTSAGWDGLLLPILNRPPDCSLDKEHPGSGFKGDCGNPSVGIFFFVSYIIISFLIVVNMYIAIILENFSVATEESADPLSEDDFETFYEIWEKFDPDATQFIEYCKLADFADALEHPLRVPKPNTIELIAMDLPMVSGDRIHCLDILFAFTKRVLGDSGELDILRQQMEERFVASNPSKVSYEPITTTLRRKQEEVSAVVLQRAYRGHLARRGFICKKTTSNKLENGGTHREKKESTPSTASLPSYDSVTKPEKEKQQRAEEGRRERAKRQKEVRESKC
From the text: as §1, §2, §3, §4, §5

Where [3] appears, read: 10 Hz frequency-dependent block (TP11), read-out: IC50 Nav1.2 10 Hz block.
The mark [4] stands for this setting: Inactivated state block (TP12), read-out: IC50 Nav1.2 Inactivated state block.
[5] abbreviates: Tonic block (TP1), read-out: IC50 Nav1.2 Tonic block.
Where [6] appears, read: 10 Hz frequency-dependent block (TP11), read-out: IC50 Nav1.6 10 Hz block.
Setting [7] is: Inactivated state block (TP12), read-out: IC50 Nav1.6 Inactivated state block.
The mark [8] stands for this setting: Tonic block (TP1), read-out: IC50 Nav1.6 Tonic block.

Where two headings read alike, the source gives them in different places.

hNav1.2, sequence (Q99250 whole entry): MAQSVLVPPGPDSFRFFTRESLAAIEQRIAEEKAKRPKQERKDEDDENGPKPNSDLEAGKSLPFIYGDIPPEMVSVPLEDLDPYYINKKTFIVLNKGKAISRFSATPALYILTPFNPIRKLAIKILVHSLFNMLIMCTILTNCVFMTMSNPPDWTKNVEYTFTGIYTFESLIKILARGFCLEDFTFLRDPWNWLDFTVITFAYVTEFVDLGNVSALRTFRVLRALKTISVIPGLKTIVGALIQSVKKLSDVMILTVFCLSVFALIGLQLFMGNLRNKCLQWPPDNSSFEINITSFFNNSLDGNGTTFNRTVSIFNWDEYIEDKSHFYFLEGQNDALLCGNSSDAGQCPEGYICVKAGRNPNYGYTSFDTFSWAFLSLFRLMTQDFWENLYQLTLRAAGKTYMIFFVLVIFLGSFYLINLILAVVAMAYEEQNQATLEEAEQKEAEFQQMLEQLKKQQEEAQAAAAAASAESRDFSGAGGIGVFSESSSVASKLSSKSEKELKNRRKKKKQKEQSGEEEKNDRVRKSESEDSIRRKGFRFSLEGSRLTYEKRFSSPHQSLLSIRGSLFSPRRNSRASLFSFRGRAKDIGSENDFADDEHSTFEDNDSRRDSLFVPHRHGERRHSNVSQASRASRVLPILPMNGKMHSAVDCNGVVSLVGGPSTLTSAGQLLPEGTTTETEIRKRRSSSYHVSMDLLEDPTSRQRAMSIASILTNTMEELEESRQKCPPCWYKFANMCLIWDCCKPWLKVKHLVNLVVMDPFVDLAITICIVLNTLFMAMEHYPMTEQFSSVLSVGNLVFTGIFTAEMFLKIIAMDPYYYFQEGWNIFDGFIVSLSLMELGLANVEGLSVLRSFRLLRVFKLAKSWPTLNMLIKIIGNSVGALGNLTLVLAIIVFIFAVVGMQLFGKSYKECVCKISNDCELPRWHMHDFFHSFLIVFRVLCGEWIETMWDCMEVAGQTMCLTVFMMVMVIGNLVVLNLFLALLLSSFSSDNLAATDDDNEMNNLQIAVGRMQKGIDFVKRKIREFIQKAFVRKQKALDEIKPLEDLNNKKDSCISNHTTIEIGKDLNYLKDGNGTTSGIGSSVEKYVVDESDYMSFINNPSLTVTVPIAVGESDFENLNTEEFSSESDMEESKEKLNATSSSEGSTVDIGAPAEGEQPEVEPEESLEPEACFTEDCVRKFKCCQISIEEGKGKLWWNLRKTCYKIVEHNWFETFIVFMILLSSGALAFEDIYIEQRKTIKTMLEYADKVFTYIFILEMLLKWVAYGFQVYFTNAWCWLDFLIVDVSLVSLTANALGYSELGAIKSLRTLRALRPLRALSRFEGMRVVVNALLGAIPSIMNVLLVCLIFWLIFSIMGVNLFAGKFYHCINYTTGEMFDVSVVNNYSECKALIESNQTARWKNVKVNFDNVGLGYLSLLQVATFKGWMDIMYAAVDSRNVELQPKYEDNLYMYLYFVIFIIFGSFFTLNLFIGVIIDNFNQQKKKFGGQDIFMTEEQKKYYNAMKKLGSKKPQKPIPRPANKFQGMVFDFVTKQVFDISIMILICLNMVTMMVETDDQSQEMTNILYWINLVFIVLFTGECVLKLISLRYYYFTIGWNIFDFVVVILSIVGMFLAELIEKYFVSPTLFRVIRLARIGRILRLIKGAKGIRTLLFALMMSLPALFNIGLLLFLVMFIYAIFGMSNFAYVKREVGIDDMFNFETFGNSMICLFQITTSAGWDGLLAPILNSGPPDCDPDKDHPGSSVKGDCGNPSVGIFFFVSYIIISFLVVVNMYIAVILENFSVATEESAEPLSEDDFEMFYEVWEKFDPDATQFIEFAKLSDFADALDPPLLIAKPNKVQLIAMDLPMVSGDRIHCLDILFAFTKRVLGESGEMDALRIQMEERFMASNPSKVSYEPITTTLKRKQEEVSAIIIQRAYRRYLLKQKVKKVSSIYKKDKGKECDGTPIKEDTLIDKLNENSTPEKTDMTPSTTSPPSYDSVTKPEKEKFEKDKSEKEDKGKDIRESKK

As a reminder, the IC50 is the point on the concentration scale where inhibition reaches its midpoint. Consider `Cc1cccc(C)c1OCCCNCc1ccc(O)cc1` [Compound 550, 4-((3-(2,6-Dimethylphenoxy)propylamino)methyl)phenol], for which the half-maximal inhibitory concentration (IC50) in experiment [1] (setting [3]) was 5.1 µM; in experiment [1] (setting [4]), 2.2 µM; in experiment [1] (setting [5]) it was greater than 10 µM; in experiment [2] (setting [6]) it was 4.8 µM; in experiment [2] (setting [7]), 2.2 µM; in experiment [2] (setting [8]), greater than 10 µM.

Take `Cc1cccc(C)c1OCCCNCc1ccccc1F` [Compound 551, 3-(2,6-Dimethylphenoxy)-N-(2-fluorobenzyl)propan-1-amine]: the half-maximal inhibitory concentration (IC50) was 4.9 µM in experiment [1] (setting [3]); 2.1 µM in experiment [1] (setting [4]); roughly 10.1 µM in experiment [1] (setting [5]); 2 µM in experiment [2] (setting [6]); 1.1 µM in experiment [2] (setting [7]); 5.6 µM in experiment [2] (setting [8]).

Turning to `Cc1cccc(C)c1OCCCNCc1cccc(F)c1` [Compound 552, 3-(2,6-Dimethylphenoxy)-N-(3-fluorobenzyl)propan-1-amine], the half-inhibitory concentration (IC50) in experiment [1] (setting [3]) worked out at 8.1 µM; in experiment [1] (setting [4]), 2.4 µM; in experiment [1] (setting [5]), 9.5 µM; in experiment [2] (setting [6]), 1.9 µM; in experiment [2] (setting [7]) it was 1.2 µM; in experiment [2] (setting [8]), 3.1 µM.

Take `Cc1cccc(C)c1OCCCNC(C)c1ccccc1` (stereo not drawn) [Compound 553, 3-(2,6-Dimethylphenoxy)-N-(1-phenylethyl)propan-1-amine]: the IC50 in experiment [1] (setting [3]) was found to be 1.2 µM; in experiment [1] (setting [4]) it was 0.2 µM; in experiment [1] (setting [5]), 3.6 µM; in experiment [2] (setting [6]) it was 1 µM; in experiment [2] (setting [7]), 0.3 µM; in experiment [2] (setting [8]) it was 1.6 µM.

On to `Cc1cccc(C)c1OCCCNC(c1ccccc1)c1ccccc1` [Compound 554, N-Benzhydryl-3-(2,6-dimethylphenoxy)propan-1-amine], for which the IC50 in experiment [1] (setting [3]) was 32.2 µM; in experiment [1] (setting [4]), 1.4 µM; in experiment [1] (setting [5]), greater than 1000 µM; in experiment [2] (setting [6]), greater than 1000 µM; in experiment [2] (setting [7]), greater than 1000 µM; in experiment [2] (setting [8]), greater than 1000 µM.

Turning to `Cc1cccc(C)c1OCCCNCc1c2ccccc2nn1Cc1ccccc1` [Compound 555, N-((2-Benzyl-2H-indazol-3-yl)methyl)-3-(2,6-dimethylphenoxy)propan-1-amine], the IC50 in experiment [1] (setting [3]) was greater than 10 µM; in experiment [1] (setting [4]), 9.3 µM; in experiment [1] (setting [5]) it was greater than 10 µM; in experiment [2] (setting [6]) it was greater than 10 µM; in experiment [2] (setting [7]), 3.7 µM; in experiment [2] (setting [8]), greater than 10 µM.

`Cc1cccc(C)c1OCCCNCc1cccc(-c2ccccc2F)c1` [Compound 556, 3-(2,6-Dimethylphenoxy)-N-((2′-fluorobiphenyl-3-yl)methyl)propan-1-amine]: the IC50 was 4.5 µM in experiment [1] (setting [3]); 2.1 µM in experiment [1] (setting [4]); greater than 30 µM in experiment [1] (setting [5]); greater than 30 µM in experiment [2] (setting [6]); 8 µM in experiment [2] (setting [7]); greater than 30 µM in experiment [2] (setting [8]).

For the compound `Cc1cccc(C)c1OCCCNCc1cccc(-c2ccc(F)cc2)c1` [Compound 557, 3-(2,6-Dimethylphenoxy)-N-((4′-fluorobiphenyl-3-yl)methyl)propan-1-amine], the IC50 was 9.3 µM in experiment [1] (setting [3]); 3.2 µM in experiment [1] (setting [4]); greater than 30 µM in experiment [1] (setting [5]); greater than 30 µM in experiment [2] (setting [6]); greater than 30 µM in experiment [2] (setting [7]); greater than 30 µM in experiment [2] (setting [8]).

Turning to `Cc1cccc(C)c1OCCCNCc1cccc(-c2cncnc2)c1` [Compound 558, 3-(2,6-Dimethylphenoxy)-N-(3-(pyrimidin-5-yl)benzyl)propan-1-amine], the IC50 in experiment [1] (setting [3]) came to 0.6 µM; in experiment [1] (setting [4]) it was 0.2 µM; in experiment [1] (setting [5]), 1.2 µM; in experiment [2] (setting [6]) it was 0.4 µM; in experiment [2] (setting [7]), 0.3 µM; in experiment [2] (setting [8]), 0.4 µM.

As for `Cc1cccc(C)c1OCCCNCc1cc(C(C)(C)C)cc(C(C)(C)C)c1` [Compound 559, N-(3,5-Di-tert-butylbenzyl)-3-(2,6-dimethylphenoxy)propan-1-amine], the IC50 in experiment [1] (setting [3]), in experiment [1] (setting [4]), in experiment [1] (setting [5]), in experiment [2] (setting [6]), in experiment [2] (setting [7]) and in experiment [2] (setting [8]) was greater than 10 µM throughout.

For `Cc1cccc(C)c1OCCCNC(c1ccccn1)c1ccccn1` [Compound 562, 3-(2,6-Dimethylphenoxy)-N-(dipyridin-2-ylmethyl)propan-1-amine], the IC50 in experiment [1] (setting [3]) is 1.2 µM; in experiment [1] (setting [4]), 0.1 µM; in experiment [1] (setting [5]), greater than 30 µM; in experiment [2] (setting [6]) it was 1.3 µM; in experiment [2] (setting [7]), 0.1 µM; in experiment [2] (setting [8]), greater than 30 µM.

As to `Cc1n[nH]c(C)c1OCCCNC(c1ccccn1)c1ccccn1` [Compound 642, 3-(3,5-Dimethyl-1H-pyrazol-4-yloxy)-N-(dipyridin-2-ylmethyl)propan-1-amine], the IC50 in experiment [1] (setting [3]), in experiment [1] (setting [4]), in experiment [1] (setting [5]), in experiment [2] (setting [6]), in experiment [2] (setting [7]) and in experiment [2] (setting [8]) was greater than 10 µM throughout.

Turning to `Cc1n[nH]c(C)c1OCCCNCc1cccc(-c2cncnc2)c1` [Compound 643, 3-(3,5-Dimethyl-1H-pyrazol-4-yloxy)-N-(3-(pyrimidin-5-yl)benzyl)propan-1-amine], the IC50 in experiment [1] (setting [3]), in experiment [1] (setting [4]), in experiment [1] (setting [5]), in experiment [2] (setting [6]), in experiment [2] (setting [7]) and in experiment [2] (setting [8]) was greater than 10 µM in each case.

Consider `Cc1nn(C)c(C)c1OCCCNC(c1ccccn1)c1ccccn1` [Compound 644, N-(Dipyridin-2-ylmethyl)-3-(1,3,5-trimethyl-1H-pyrazol-4-yloxy)propan-1-amine], for which the half-inhibitory concentration (IC50) in experiment [1] (setting [3]), in experiment [1] (setting [4]), in experiment [1] (setting [5]), in experiment [2] (setting [6]), in experiment [2] (setting [7]) and in experiment [2] (setting [8]) was greater than 10 µM in each case.

For the compound `Cc1nn(C)c(C)c1OCCCNCc1cccc(-c2cncnc2)c1` [Compound 645, N-(3-(Pyrimidin-5-yl)benzyl)-3-(1,3,5-trimethyl-1H-pyrazol-4-yloxy)propan-1-amine], the half-inhibitory concentration (IC50) in experiment [1] (setting [3]), in experiment [1] (setting [4]), in experiment [1] (setting [5]), in experiment [2] (setting [6]), in experiment [2] (setting [7]) and in experiment [2] (setting [8]) was greater than 10 µM each time.
